In the assay the test system is T1, Bromelain.
T1 construct: commercial native preparation
The assay can be described thus: absorbance at […] nm, hydrolysis. It is filed as biochemical. As to conditions: free enzyme; 37 °C; pH not told; substrate of the kinetics taken from the activity assay.

Counter-ions that a name gives are not always drawn.

Consider `CCOC(=O)[C@H](CCCN=C(N)N)NC(=O)c1ccccc1` [N-Benzoyl-L-arginine ethyl ester hydrochloride], for which the Km (commonly the substrate concentration at which the rate is half of its maximum) turned out to be 930 ± 40 µM.
